Laboratory results from paper PMC10455339, “Combining the Peptide RWQWRWQWR and an Ethanolic Extract of Bidens pilosa Enhances the Activity against Sensitive and Resistant Candida albicans and C. auris Strains” (Journal of Fungi, 2023).
Values joined by “and” are separate entries in the source; they are usually repeats but may differ in a detail not shown here. Identical values can stand only once. Like-named read-outs stand apart in the source and are kept apart here. Ends that are not written are not given here.

Tests used:
C. albicans = settings: cited from earlier work
From the text: Antifungal activity of other phenolic acids, such as chlorogenic acid, has been reported against Candida spp. resistant to FLC, generating a death process similar to apoptosis.

C. albicans 256-PUJ-HUSI = test: Antifungal activity (MIC/MFC), broth microdilution; format: cell-based, Candida albicans; settings: FLC-resistant isolate, n = 3
Protocol: (§1) For the determination of the MICs, the guidelines of the Clinical Laboratory Standards Institute (CLSI BMD-M27-A4) were used with some modifications. Serial dilutions were made, for peptides from 6.25 to 200 µg/mL and for extracts from 31.2 to 2000 µg/mL, with RPMI 1640 medium in a 96-well microdilution plate (100 µL), and then 100 µL of the adjusted inoculum (0.5–2.5 × 10^3 cells/mL) was added and incubated at 37 °C, and visual and spectrophotometric reading (595 nm) was performed at 48 h. Controls: growth control in RPMI or DMSO, control with a known antifungal: FLC, C. albicans SC5314 (1 µg/mL), C. albicans 256 (64 µg/mL), C. auris 435 (8 µg/mL), and C. auris 537 (128 µg/mL), sterility controls correspond to RPMI medium and SS. The MIC was defined as the minimum concentration of peptide or extract that inhibited 50% of growth compared to the control. To determine the minimal fungicidal concentration (MFC), from the concentrations where no growth was observed, including the controls, a subculture was made on SDA and incubated for 24 h at 37 °C. The MFC was defined as the minimum concentration of peptide or extract that eliminated 100% of the growth compared to the control (n = 3).

C. albicans SC5314 = test: microbe, parasite or virus in culture; format: cell-based, Candida albicans; settings: n = 3; for MIC: CLSI M27-A4 modified, RPMI 1640, 37 °C, 48 h, MIC = 50% growth inhibition; for MFC: subculture on SDA 24 h 37 °C, MFC = eliminates 100% of growth
Protocol: as §1

C. auris 435-PUJ-HUSI = test: Antifungal activity (MIC/MFC), broth microdilution; format: cell-based, Candida auris; settings: FLC-sensitive isolate, n = 3; for MIC: CLSI M27-A4 modified, RPMI 1640, 37 °C, 48 h, MIC = 50% growth inhibition; for MFC: subculture on SDA 24 h 37 °C, MFC = eliminates 100% of growth
Protocol: as §1

C. auris 537-PUJ-HUSI = test: Antifungal activity (MIC/MFC), broth microdilution; format: cell-based, Candida auris; settings: FLC- and AmB-resistant isolate, n = 3
Protocol: as §1

[1] = reported against other C. albicans strains
[2] = reported against C. albicans strains
[3] = CLSI M27-A4 modified, RPMI 1640, 37 °C, 48 h, MIC = 50% growth inhibition
[4] = subculture on SDA 24 h 37 °C, MFC = eliminates 100% of growth

Q: With “FKCRRWQWRMKKLGA [bLF (or LFB) 17–30, short peptide derived from LfcinB, …]” as the substance, how does the MIC (C. albicans; [1]) read?
A: The MIC was 5 to 10 µM.

Q: For “GAPSITCVRRAF [Peptide 3, short peptide derived from LfcinB, …]”, which MIC (C. albicans; [1]) is on record?
A: Its MIC is 635 µM.

Q: Which MIC (C. albicans; [2]) does the source give for “Lfcin B-18-42: short peptide derived from LfcinB (FKCRRWQWRMKKLGAPSITCVRRAF; ends and bridges not checked; cysteine pairing not given here; UniProt P24627 36-60, looked up, fragment)” here?
A: The MIC was 100 µg/mL.

Q: With “LfcinB: Bovine lactoferricin, AMP derived from bovine lactoferrin (FKCRRWQWRMKKLGAPSITCVRRAF; ends and bridges not checked; cysteine pairing not given here; UniProt P24627 36-60, looked up)” as the substance, how does the MIC (C. albicans; [2]) read?
A: The MIC was 0.8 to 400 µg/mL.

Q: For “RRWQWRMKK [Lfcin B-9, short peptide derived from LfcinB, …]”, which MIC (C. albicans; [2]) is on record?
A: The MIC was 25,000–32,000 μg/mL.

Q: Which MIC (C. albicans 256-PUJ-HUSI; [3]) does the source give for “RWQWHomoFQWR [[^5HomoF]-R-1-R, RWQWHomoFQWR, position 5 replaced by Homophenylalanine]” here?
A: Its MIC is 200 μg/mL and 134 μM.

Q: And the MFC (C. albicans 256-PUJ-HUSI; [4])?
A: Its MFC is > 200 μg/mL and > 134 μM.

Q: And the MIC (C. albicans SC5314)?
A: Its MIC is 200 μg/mL and 134 μM.

Q: And the MFC (C. albicans SC5314)?
A: Its MFC is > 200 μg/mL and > 134 μM.

Q: And the MIC (C. auris 435-PUJ-HUSI)?
A: Its MIC is > 200 μg/mL and > 134 μM.

Q: What about the MFC (C. auris 435-PUJ-HUSI) of the same substance?
A: Its MFC is > 200 μg/mL and > 134 μM.

Q: And the MIC (C. auris 537-PUJ-HUSI; [3])?
A: Its MIC is > 200 μg/mL and > 134 μM.

Q: What about the MFC (C. auris 537-PUJ-HUSI; [4]) of the same substance?
A: The MFC was > 200 μg/mL and > 134 μM.

Q: With “RWQWNalQWR [[^5Nal]-R-1-R, RWQWNalQWR, position 5 replaced by Naphthylalanine]” as the substance, how does the MIC (C. albicans SC5314) read?
A: The MIC was > 200 μg/mL and > 131 μM.

Q: And the MFC (C. albicans SC5314)?
A: The MFC was > 200 μg/mL and > 131 μM.

Q: What about the MIC (C. auris 435-PUJ-HUSI) of the same substance?
A: Its MIC is > 200 μg/mL and > 131 μM.

Q: And the MFC (C. auris 435-PUJ-HUSI)?
A: The MFC was > 200 μg/mL and > 131 μM.

Q: Which MIC (C. albicans; [1]) does the source give for “RWQWRM [Peptide 5, short peptide derived from LfcinB, RWQWRM]” here?
A: The MIC was 500 µM.
